Earlier results in US10561630B2, “Hydroxycitric acid compounds and capsule liquid delivery” (GLYKON TECHNOLOGIES GROUP, LLC, priority 2016, dated 2020).

Assays:
[1] = single large oral dose or two divided oral doses; min. 2.63 mmoles/kg once per day or 0.33 mmoles/kg twice per day; high-sugar diet
[2] = 2-week period

O=C(O)CC(O)(C(=O)O)C(O)C(=O)O (single isomer, unassigned; (-)) [HCA, (−)-hydroxycitric acid]
reduction in food consumption [1]: ≥ 10%
food intake decreased ([2]; 900 mg HCA, dissolved in 100 ml tomato juice): 15-30%
weight loss [2]: no significant weight loss
